Experiment in all cases: potency against CXCR6 with APJ panel – cell-based, beta-arrestin, DiscoveRx, uHTS hits, dose response (AID 624129)
Experiment [1] addresses Beta-galactosidase (Escherichia coli) (UniProt Q8VNN2). The conditions noted are these: CXCR6 beta-arrestin (DiscoveRx) antagonist cell assay, b-galactosidase.
Experiment [2] concerns the target C-X-C chemokine receptor type 6 (Homo sapiens) (UniProt O00574). The conditions noted are these: CXCR6 beta-arrestin (DiscoveRx) antagonist cell assay; for inhibition: CXCR6, run 1, dose range 2, at 80 µM (top of the series).
For experiment [3], the target named is C-C chemokine receptor type 6 (Homo sapiens) (UniProt P51684). The settings on record: CXCR6 beta-arrestin (DiscoveRx) antagonist cell assay.
For experiment [4], the target named is Apelin receptor (Homo sapiens) (UniProt P35414). The settings on record: CXCR6 beta-arrestin (DiscoveRx) antagonist cell assay, APJ.
[5] abbreviates: dose range 1, mean IC50 across replicates.
Setting [6] is: CXCR6, dose range 1, mean IC50 across replicates.
Setting [7] is: CCR6, dose range 1, mean IC50 across replicates.

Active and inactive are the calls of the source. No rule for the calls is given here.

Chain of Beta-galactosidase (Escherichia coli) (Q8VNN2 whole entry, looked up): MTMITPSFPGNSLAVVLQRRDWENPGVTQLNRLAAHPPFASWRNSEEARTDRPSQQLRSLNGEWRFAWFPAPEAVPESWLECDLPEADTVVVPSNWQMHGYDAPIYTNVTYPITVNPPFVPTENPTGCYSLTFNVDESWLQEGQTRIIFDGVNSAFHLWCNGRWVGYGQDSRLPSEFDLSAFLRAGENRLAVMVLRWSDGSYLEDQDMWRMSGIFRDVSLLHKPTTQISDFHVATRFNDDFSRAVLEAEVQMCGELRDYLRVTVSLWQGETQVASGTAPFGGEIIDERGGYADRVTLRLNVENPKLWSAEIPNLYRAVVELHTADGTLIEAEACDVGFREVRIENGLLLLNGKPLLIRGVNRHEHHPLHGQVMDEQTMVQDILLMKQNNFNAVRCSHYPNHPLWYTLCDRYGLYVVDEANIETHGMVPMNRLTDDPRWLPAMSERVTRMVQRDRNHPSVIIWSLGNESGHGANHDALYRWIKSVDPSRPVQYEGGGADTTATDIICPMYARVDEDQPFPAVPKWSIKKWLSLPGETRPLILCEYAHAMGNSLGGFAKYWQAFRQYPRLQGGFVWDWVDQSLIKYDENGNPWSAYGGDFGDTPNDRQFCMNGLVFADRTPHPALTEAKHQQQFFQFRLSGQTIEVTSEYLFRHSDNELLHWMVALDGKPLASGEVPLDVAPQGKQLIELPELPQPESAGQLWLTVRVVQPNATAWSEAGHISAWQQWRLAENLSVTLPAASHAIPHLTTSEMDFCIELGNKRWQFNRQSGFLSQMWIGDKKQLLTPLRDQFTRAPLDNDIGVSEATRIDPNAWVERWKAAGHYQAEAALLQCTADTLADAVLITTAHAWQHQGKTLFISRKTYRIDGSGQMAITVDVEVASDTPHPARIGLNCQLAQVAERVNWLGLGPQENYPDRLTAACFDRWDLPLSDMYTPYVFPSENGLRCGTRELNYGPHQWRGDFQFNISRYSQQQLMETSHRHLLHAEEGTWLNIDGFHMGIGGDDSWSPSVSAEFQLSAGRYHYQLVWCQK
Chain of C-X-C chemokine receptor type 6 (Homo sapiens) (O00574 whole entry, looked up): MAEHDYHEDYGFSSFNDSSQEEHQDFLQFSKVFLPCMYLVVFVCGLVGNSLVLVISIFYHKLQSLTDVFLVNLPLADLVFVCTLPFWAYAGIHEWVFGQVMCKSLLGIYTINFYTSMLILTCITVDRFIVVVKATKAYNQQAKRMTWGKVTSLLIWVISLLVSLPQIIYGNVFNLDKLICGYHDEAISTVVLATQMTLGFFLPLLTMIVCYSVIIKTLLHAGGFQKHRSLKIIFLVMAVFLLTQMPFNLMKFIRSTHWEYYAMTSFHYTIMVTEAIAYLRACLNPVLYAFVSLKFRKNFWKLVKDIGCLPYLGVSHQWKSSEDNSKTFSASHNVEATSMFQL

As to `Oc1cccc2ccc(/C=C/c3c(F)cccc3Cl)nc12`, the IC50 was > 80 µM (inactive) in experiment [1] (dose range 1); > 80 µM in experiment [1] (setting [5]); 6.4 µM in experiment [2] (CXCR6, dose range 1); 5.43 µM in experiment [2] (setting [6]); 3.78 µM in experiment [2] (CXCR6, run 1, dose range 2); 6.67 µM in experiment [2] (CXCR6, run 2, dose range 1). The IC50 was 4.85 µM in experiment [2] (CXCR6, run 2, dose range 2); 5.94 µM in experiment [3] (CCR6, dose range 1); 5.8 µM in experiment [3] (setting [7]); 5.66 µM in experiment [3] (CCR6, run 2, dose range 1); 6.69 µM in experiment [4] (dose range 1); 15.4 µM in experiment [4] (setting [5]). Besides, the IC50 in experiment [4] (run 2, dose range 1) was determined as 11.2 µM; in experiment [4] (run 3, dose range 1) it was 28.2 µM.

Regarding `COc1ccc(-c2csc(Cc3nc(O)cs3)n2)cc1`, the IC50 in experiment [1] (dose range 1) was > 80 µM (inactive); in experiment [1] (setting [5]), > 80 µM; in experiment [2] (CXCR6, dose range 1) it was 4.12 µM; in experiment [2] (setting [6]), 4.09 µM; in experiment [2] (CXCR6, run 1, dose range 2), 3.66 µM; in experiment [2] (CXCR6, run 2, dose range 1) it was 4.68 µM. For the same compound, the IC50 in experiment [2] (CXCR6, run 2, dose range 2) is 3.91 µM; in experiment [3] (CCR6, dose range 1), 2.8 µM; in experiment [3] (setting [7]), 3.45 µM; in experiment [3] (CCR6, run 2, dose range 1) it was 4.1 µM; in experiment [4] (dose range 1), 4.5 µM; in experiment [4] (setting [5]), 4.96 µM. The IC50 in experiment [4] (run 2, dose range 1) was determined as 5.92 µM; in experiment [4] (run 3, dose range 1) it was 4.47 µM.

As for `Cc1cccc(C(=O)Nc2ccc(C(=O)/C=C/c3cccnc3)cc2)c1`, the IC50 is > 80 µM (inactive) in experiment [1] (dose range 1); > 80 µM in experiment [1] (setting [5]); 13.9 µM in experiment [2] (CXCR6, dose range 1); 8.81 µM in experiment [2] (setting [6]); 6.87 µM in experiment [2] (CXCR6, run 1, dose range 2); 7.01 µM in experiment [2] (CXCR6, run 2, dose range 1). For the same compound, the IC50 was 7.46 µM in experiment [2] (CXCR6, run 2, dose range 2); 5.35 µM in experiment [3] (CCR6, dose range 1); 5.73 µM in experiment [3] (setting [7]); 6.11 µM in experiment [3] (CCR6, run 2, dose range 1); 8.75 µM in experiment [4] (dose range 1); 9.66 µM in experiment [4] (setting [5]). Also, the IC50 in experiment [4] (run 2, dose range 1) is 9.81 µM; in experiment [4] (run 3, dose range 1) it was 10.4 µM.

As to `FC(F)(F)c1cnc(NNC(=S)Nc2ccccc2Cl)c(Cl)c1`, the IC50 in experiment [1] (dose range 1) is > 80 µM (inactive); in experiment [1] (setting [5]) it was > 80 µM; in experiment [2] (CXCR6, dose range 1), > 80 µM (inactive); in experiment [2] (setting [6]), > 80 µM; in experiment [2] (CXCR6, run 2, dose range 1), > 80 µM; in experiment [3] (setting [7]) it was > 80 µM. For the same compound, the concentration for half-maximal inhibition (IC50) in experiment [3] (CCR6, run 2, dose range 1) was > 80 µM; in experiment [4] (setting [5]), > 80 µM; in experiment [4] (run 2, dose range 1) it was > 80 µM; in experiment [4] (run 3, dose range 1), > 80 µM. The inhibition in experiment [2] worked out at 2.4%.

With `Fc1ccc(Sc2nc(-c3ccccc3)nnc2C(F)(F)F)cc1`, the IC50 in experiment [1] (dose range 1) is > 80 µM (inactive); in experiment [1] (setting [5]), > 80 µM; in experiment [2] (setting [6]), 12 µM; in experiment [2] (CXCR6, run 1, dose range 2) it was 5.63 µM; in experiment [2] (CXCR6, run 2, dose range 1), 27.7 µM; in experiment [2] (CXCR6, run 2, dose range 2), 8.28 µM. Further, the IC50 in experiment [3] (CCR6, dose range 1) was 7.47 µM; in experiment [3] (setting [7]) it was 7.42 µM; in experiment [3] (CCR6, run 2, dose range 1), 7.37 µM; in experiment [4] (setting [5]), 64.5 µM; in experiment [4] (run 2, dose range 1), 57.4 µM; in experiment [4] (run 3, dose range 1) it was > 80 µM. Besides, the IC50 result in experiment [2] (CXCR6, dose range 1) is “inactive”; in experiment [4] (dose range 1) it was “inactive”.

With `O=[N+]([O-])c1cc(Cc2ccccc2)cc(C=Nc2ccc(N3CCOCC3)cc2)c1O`, the IC50 result in experiment [1] (dose range 1) is “inactive”; in experiment [2] (CXCR6, dose range 1) it was “inactive”. In addition, the IC50 is 64.7 µM in experiment [1] (setting [5]); 14.5 µM in experiment [2] (setting [6]); 13.1 µM in experiment [2] (CXCR6, run 2, dose range 1); 37.4 µM in experiment [3] (setting [7]); 37.4 µM in experiment [3] (CCR6, run 2, dose range 1); 15.7 µM in experiment [4] (dose range 1). The IC50 came to 28.9 µM in experiment [4] (setting [5]); 33.6 µM in experiment [4] (run 2, dose range 1); 37.4 µM in experiment [4] (run 3, dose range 1). The inhibition in experiment [2] worked out at 93.2%.

As to `O=C1C(=C(c2ccccc2)N2CCOCC2)Cc2ccccc21`, the IC50 is > 80 µM (inactive) in experiment [1] (dose range 1); > 80 µM in experiment [1] (setting [5]); 8.74 µM in experiment [2] (CXCR6, dose range 1); 9.51 µM in experiment [2] (setting [6]); 9.93 µM in experiment [2] (CXCR6, run 1, dose range 2); 10.3 µM in experiment [2] (CXCR6, run 2, dose range 1). For the same compound, the IC50 in experiment [2] (CXCR6, run 2, dose range 2) was 9.08 µM; in experiment [3] (CCR6, dose range 1) it was 8.91 µM; in experiment [3] (setting [7]), 8.89 µM; in experiment [3] (CCR6, run 2, dose range 1) it was 8.87 µM; in experiment [4] (dose range 1), 15.3 µM; in experiment [4] (setting [5]), 13.2 µM. In addition, the IC50 turned out to be 11.8 µM in experiment [4] (run 2, dose range 1) and 12.5 µM in experiment [4] (run 3, dose range 1).

As for `Cc1ccsc1/C=C/c1ccc2cccc(O)c2n1`, the IC50 in experiment [1] (dose range 1) is > 80 µM (inactive); in experiment [1] (setting [5]), > 80 µM; in experiment [2] (CXCR6, dose range 1) it was 6.32 µM; in experiment [2] (setting [6]), 5.47 µM; in experiment [2] (CXCR6, run 1, dose range 2), 3.12 µM; in experiment [2] (CXCR6, run 2, dose range 1), 8.63 µM. The IC50 in experiment [2] (CXCR6, run 2, dose range 2) is 3.82 µM; in experiment [3] (CCR6, dose range 1) it was 5.29 µM; in experiment [3] (setting [7]), 6.51 µM; in experiment [3] (CCR6, run 2, dose range 1), 7.72 µM; in experiment [4] (dose range 1), 6.75 µM; in experiment [4] (setting [5]), 7.71 µM. Further, the IC50 in experiment [4] (run 2, dose range 1) came to 9.69 µM; in experiment [4] (run 3, dose range 1) it was 6.7 µM.

In the case of `COc1ccc(OC)c(/C=C/c2ccc3cccc(O)c3n2)c1`, the IC50 was > 80 µM (inactive) in experiment [1] (dose range 1); > 80 µM in experiment [1] (setting [5]); 4.15 µM in experiment [2] (CXCR6, dose range 1); 5.39 µM in experiment [2] (setting [6]); 5.17 µM in experiment [2] (CXCR6, run 1, dose range 2); 5.26 µM in experiment [2] (CXCR6, run 2, dose range 1). The IC50 in experiment [2] (CXCR6, run 2, dose range 2) was 6.98 µM; in experiment [3] (CCR6, dose range 1), 3.73 µM; in experiment [3] (setting [7]), 5.88 µM; in experiment [3] (CCR6, run 2, dose range 1) it was 8.03 µM; in experiment [4] (dose range 1), 6.47 µM; in experiment [4] (setting [5]), 8.4 µM. Besides, the concentration for half-maximal inhibition (IC50) in experiment [4] (run 2, dose range 1) was found to be 10.3 µM; in experiment [4] (run 3, dose range 1), 8.46 µM.

For the compound `CCc1ccccc1OCC(=O)Nc1nc(-c2cccnc2)cs1`, the IC50 in experiment [1] (dose range 1) is > 80 µM (inactive); in experiment [1] (setting [5]) it was > 80 µM; in experiment [2] (setting [6]) it was 11 µM; in experiment [2] (CXCR6, run 1, dose range 2) it was 7.82 µM; in experiment [2] (CXCR6, run 2, dose range 1), 16.8 µM; in experiment [2] (CXCR6, run 2, dose range 2), 8.73 µM. Also, the IC50 in experiment [3] (CCR6, dose range 1) was 6.24 µM; in experiment [3] (setting [7]), 6.97 µM; in experiment [3] (CCR6, run 2, dose range 1), 7.7 µM; in experiment [4] (dose range 1), 8.5 µM; in experiment [4] (setting [5]), 12.5 µM; in experiment [4] (run 2, dose range 1), 12 µM. The IC50 in experiment [4] (run 3, dose range 1) stood at 17 µM. Also, in experiment [2] (CXCR6, dose range 1), the IC50 entry is “inactive”.

As to `C/C(=N\NC(=O)Cc1ccc(Cl)cc1)c1ccccn1`, the IC50 in experiment [1] (dose range 1) is > 80 µM (inactive); in experiment [1] (setting [5]), > 80 µM; in experiment [2] (CXCR6, dose range 1), 3.73 µM; in experiment [2] (setting [6]), 3.75 µM; in experiment [2] (CXCR6, run 1, dose range 2) it was 3.29 µM; in experiment [2] (CXCR6, run 2, dose range 1), 4.52 µM. Besides, the IC50 in experiment [2] (CXCR6, run 2, dose range 2) was 3.45 µM; in experiment [3] (CCR6, dose range 1), 3.22 µM; in experiment [3] (setting [7]), 3.45 µM; in experiment [3] (CCR6, run 2, dose range 1) it was 3.69 µM; in experiment [4] (dose range 1), 3.41 µM; in experiment [4] (setting [5]), 14 µM. For the same compound, the IC50 in experiment [4] (run 2, dose range 1) stood at 4.94 µM; in experiment [4] (run 3, dose range 1) it was 33.7 µM.

Consider `CCOc1ccc(NC(=O)CN(C)S(=O)(=O)c2cccs2)cc1`, for which the IC50 in experiment [1] (dose range 1) is > 80 µM (inactive); in experiment [1] (setting [5]), > 80 µM; in experiment [2] (CXCR6, dose range 1) it was > 80 µM (inactive); in experiment [2] (setting [6]) it was > 80 µM; in experiment [2] (CXCR6, run 2, dose range 1) it was > 80 µM; in experiment [3] (setting [7]), > 80 µM. Further, the IC50 in experiment [3] (CCR6, run 2, dose range 1) is > 80 µM; in experiment [4] (setting [5]), > 80 µM; in experiment [4] (run 2, dose range 1) it was > 80 µM; in experiment [4] (run 3, dose range 1), > 80 µM. Also, the inhibition in experiment [2] is -28%.

By IC50 is commonly meant the concentration that inhibits the measured activity by half. For orientation: inhibition means the relative decrease from the control value, in per cent.

For the origin of these results see PubChem BioAssay AID624129 (Sanford-Burnham Center for Chemical Genomics, 2012).
